Results as given in the NIST ThermoML archive (doi:10.1021/je100300s).

Columns and labels:
[1] = xn = mol fraction of the nth substance listed; conditions: 101 kPa, Liquid, x2 = 0
[2] = refractive index (Na D-line) (dimensionless); xn = mol fraction of the nth substance listed; conditions: 101 kPa, Liquid, Standard Abbe refractometry, x2 = 0
[3] = refractive index (Na D-line) (dimensionless); conditions: 101.33 kPa, Liquid, Standard Abbe refractometry
[4] = 101 kPa, Liquid

O [water] + CC(O)CN
Conditions | mass density, [1] [kg/m3] | refractive index, [2] | viscosity, [1] [mPa·s]
293.15 K | – | 1.33298 | –
298.15 K | – | 1.33249 | 0.882
303.15 K | – | 1.33193 | 0.804
308.15 K | – | 1.33136 | –
313.15 K | – | 1.33067 | 0.658
318.15 K | – | 1.3299 | –
323.15 K | 988.03 | 1.32906 | 0.551
328.15 K | – | 1.32818 | –
333.15 K | 983.19 | 1.32726 | 0.47
343.15 K | 977.75 | – | 0.407

CC(O)CN (centres undefined) [1-amino-2-propanol]
Conditions | mass density, [4] [kg/m3] | refractive index, [3] | viscosity, [4] [mPa·s]
293.15 K | – | 1.448 | –
298.15 K | 956.51 | 1.44609 | 26.68
303.15 K | 952.52 | 1.44409 | 20.31
308.15 K | – | 1.44211 | –
313.15 K | 944.42 | 1.44009 | 12.51
318.15 K | – | 1.43817 | –
323.15 K | 936.19 | 1.43631 | 7.543
328.15 K | – | 1.43405 | –
333.15 K | 927.84 | 1.43208 | 5.22
343.15 K | 919.37 | – | 3.77
